{"source": "patent US11028137B2", "about": "“Mutant islet amyloid polypeptides with improved solubility and methods for using the same” (priority 2017, dated 2021)", "key": {"[1]": {"test": "Thioflavin-T fluorescence assay of amyloid formation kinetics", "format": "physicochemical", "conditions": "16 μM peptide, 10 mM PBS pH 7.4, 25° C., no stirring", "method": "Sample Preparation. Each peptide was dissolved into 100% hexafluoroisoproponal (HFIP) to make a 0.5 mM stock solution. Stock solutions were filtered using […] Acrodisc syringe filter with a GHP membrane and the required amount of peptide was lyophilized overnight to remove HFIP. Dry peptide was dissolved into the appropriate buffer for the fluorescence assays. Fluorescence Assays. Thioflavin-T binding assays, conducted without HFIP or stirring at 25° C., were utilized to monitor amyloid formation kinetics. Fluorescence measurements were performed using a Spectramax Gemini EM plate reader. Corning 96-well non-binding surface black plates with lids were used and were sealed with polyethylene sealing tape. Samples were prepared by dissolving dry peptide into 10 mM PBS buffer (pH 7.4) and 32 μM thioflavin-T solution immediately before the measurement. Thioflavin-T fluorescence was measured with 450 nm excitation and emission at 485 nm was monitored. The final concentrations were 16 μM peptides. After creating the mutant-hIAPP polypeptides of the present disclosure, applicants tested the propensity of the different analogs to form amyloid at pH 7.4 using thioflavin-T fluorescence assays (FIGS. 2A-D) and TEM (FIGS. 3A-E). […] Amyloid formation follows a sigmoidal time course consisting of a lag phase in which few, if any, fibrils are formed, followed by a growth phase and a saturation phase in which amyloid fibrils are in equilibrium with soluble peptide."}, "[2]": {"test": "Transmission electron microscopy (TEM) of amyloid aggregates", "format": "physicochemical", "method": "Transmission Electron Microscopy (TEM). TEM images were recorded using an FEI Bio TwinG^2 Transmission Electron Microscope at the central microscopy center at Stony Brook University. 15 μL aliquots of the samples used for fluorescence assays were removed at the end of each kinetic experiment, blotted on a carbon formvar-coated 300-mesh copper grid for 1 min and then negatively stained with saturated uranyl acetate for 1 min. Images were taken at a 68,000× magnification and 100 nm under focus. Mutant-hIAPP polypeptides of the present disclosure were further analyzed using TEM. […] In contrast, no amyloid fibrils were formed after a 1 week (FIGS. 3B-E, left) or 6 week (FIGS. 3B-E, right) culture with the any of the mutant-hIAPP analogs tested."}}}
{"smiles": "CC[C@H](C)[C@H](NC(=O)[C@H](C)NC(=O)CNC(=O)[C@H](Cc1ccccc1)NC(=O)[C@H](CC(N)=O)NC(=O)[C@H](CC(N)=O)NC(=O)[C@H](CO)NC(=O)[C@H](CO)NC(=O)[C@H](Cc1c[nH]cn1)NC(=O)[C@@H](NC(=O)[C@H](CC(C)C)NC(=O)[C@H](Cc1ccccc1)NC(=O)[C@H](CC(N)=O)NC(=O)[C@H](C)NC(=O)[C@H](CC(C)C)NC(=O)[C@H](CCCNC(=N)N)NC(=O)[C@H](CCC(N)=O)NC(=O)[C@@H](NC(=O)[C@H](C)NC(=O)[C@@H]1CSSC[C@H](NC(=O)[C@@H](N)CCCCN)C(=O)N[C@@H](CC(N)=O)C(=O)N[C@@H]([C@@H](C)O)C(=O)N[C@@H](C)C(=O)N[C@@H]([C@@H](C)O)C(=O)N1)[C@@H](C)O)C(C)C)C(=O)N[C@@H](CC(C)C)C(=O)N[C@@H](CO)C(=O)N[C@@H](CO)C(=O)N[C@H](C(=O)N[C@@H](CC(N)=O)C(=O)N[C@H](C(=O)NCC(=O)N[C@@H](CO)C(=O)N[C@@H](CC(N)=O)C(=O)N[C@H](C(=O)N[C@@H](Cc1ccc(O)cc1)C(N)=O)[C@@H](C)O)C(C)C)[C@@H](C)O", "note": "[Wild-type hIAPP, reference compound]", "values": [{"measurement": "time at which amyloid formation reaches the saturation phase", "setting": "[1]; 32 μM thioflavin-T", "result": "≤ 30", "unit": "h"}, {"measurement": "amyloid formation monitored by thioflavin-T fluorescence", "setting": "[1]; 1 week and 6 week incubations", "result": "forms significant amounts of amyloid"}, {"measurement": "amyloid fibrils in TEM images", "setting": "[2]; after 1 week and 6 week time periods", "result": "typical amyloid fibril morphology"}, {"measurement": "amyloid aggregates in TEM images", "setting": "[2]; after 7 days of incubation, end of kinetic experiment", "result": "extensive amounts of amyloid fibers"}]}
